Like-named read-outs stand apart in the source and are kept apart here.
Columns and labels:
[1] = tested on: rat liver; type: in vivo; details: rats after final administration, H&E, Figure 7
Procedure: After the final administration, all rats were euthanized, and blood and liver samples were collected. The levels of biochemical indicators ALT, AST and ALP in the blood were detected according to the kit instruction. The liver histopathology was analyzed by H&E staining. Briefly, liver tissues were fixed in 10% paraformaldehyde (for over 24 h, 4°C), paraffin-embedded, and sectioned into 5-µm slices). […]

[2] = target: T1, CYP2b1 (Rattus norvegicus, UniProt P00176); parameters: from tissue; host or cells: live male Sprague-Dawley rats (whole animal, mainly liver); details: in vivo
T1 sequence (P00176 1-491): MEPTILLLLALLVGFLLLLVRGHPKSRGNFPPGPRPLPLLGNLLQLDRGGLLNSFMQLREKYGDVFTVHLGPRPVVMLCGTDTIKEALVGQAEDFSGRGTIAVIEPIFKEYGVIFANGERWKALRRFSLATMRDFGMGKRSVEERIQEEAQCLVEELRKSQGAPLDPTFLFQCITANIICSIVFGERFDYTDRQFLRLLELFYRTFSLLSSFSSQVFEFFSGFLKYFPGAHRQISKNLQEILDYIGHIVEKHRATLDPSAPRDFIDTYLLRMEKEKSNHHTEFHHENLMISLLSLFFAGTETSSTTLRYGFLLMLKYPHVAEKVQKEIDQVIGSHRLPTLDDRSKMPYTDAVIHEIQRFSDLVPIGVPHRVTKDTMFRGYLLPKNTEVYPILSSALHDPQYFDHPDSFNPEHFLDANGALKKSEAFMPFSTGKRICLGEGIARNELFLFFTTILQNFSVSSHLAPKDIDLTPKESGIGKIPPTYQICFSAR
Procedure: (§4) The effect of the Zhicaowu–Hezi combination on CYP450 enzymes in rats was evaluated by examining the pharmacokinetics of theophylline (CYP1a2), metoprolol (CYP2d2), bupropion (CYP2b1), omeprazole (CYP2c13), chlorzoxazone (CYP2e1), testosterone (CYP3a1), and diclofenac (CYP2c11).
(§5) The collected blood was placed in sodium heparin-treated centrifuge tubes and centrifuged at 4°C for 10 min at 3,000 RPM. […] After 10 min of sedimentation, the supernatant was extracted through a 0.22-μm microporous membrane, 20 μL of which was injected into HPLC. The pharmacokinetic parameters of each probe drug were calculated using the non-atrial compartment model in Drug and Statistics software (DAS, 3.0; Shanghai, China).

[3] = target: T2, CYP3a1 (Rattus norvegicus, UniProt P04800); parameters: from tissue; host or cells: live male Sprague-Dawley rats (whole animal, liver and intestine); details: in vivo
T2 sequence (P04800 1-504): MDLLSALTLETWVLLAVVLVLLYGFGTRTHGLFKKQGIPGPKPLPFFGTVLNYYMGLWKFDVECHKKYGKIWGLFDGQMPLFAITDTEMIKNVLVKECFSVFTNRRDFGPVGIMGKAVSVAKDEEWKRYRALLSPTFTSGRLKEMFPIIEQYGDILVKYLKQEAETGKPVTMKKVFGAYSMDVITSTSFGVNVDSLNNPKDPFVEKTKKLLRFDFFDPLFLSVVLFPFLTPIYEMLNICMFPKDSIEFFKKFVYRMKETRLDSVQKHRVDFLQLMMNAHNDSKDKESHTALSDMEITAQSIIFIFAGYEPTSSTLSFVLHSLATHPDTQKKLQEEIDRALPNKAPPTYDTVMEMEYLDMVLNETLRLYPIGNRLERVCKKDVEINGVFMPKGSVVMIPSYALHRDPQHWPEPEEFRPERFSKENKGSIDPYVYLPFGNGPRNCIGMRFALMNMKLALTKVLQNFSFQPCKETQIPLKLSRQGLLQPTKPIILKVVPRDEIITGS
Procedure: as §4, §5

[4] = target: T3, CYP1a2 (Rattus norvegicus, UniProt P04799); details: microsomes
T3 sequence (P04799 1-513): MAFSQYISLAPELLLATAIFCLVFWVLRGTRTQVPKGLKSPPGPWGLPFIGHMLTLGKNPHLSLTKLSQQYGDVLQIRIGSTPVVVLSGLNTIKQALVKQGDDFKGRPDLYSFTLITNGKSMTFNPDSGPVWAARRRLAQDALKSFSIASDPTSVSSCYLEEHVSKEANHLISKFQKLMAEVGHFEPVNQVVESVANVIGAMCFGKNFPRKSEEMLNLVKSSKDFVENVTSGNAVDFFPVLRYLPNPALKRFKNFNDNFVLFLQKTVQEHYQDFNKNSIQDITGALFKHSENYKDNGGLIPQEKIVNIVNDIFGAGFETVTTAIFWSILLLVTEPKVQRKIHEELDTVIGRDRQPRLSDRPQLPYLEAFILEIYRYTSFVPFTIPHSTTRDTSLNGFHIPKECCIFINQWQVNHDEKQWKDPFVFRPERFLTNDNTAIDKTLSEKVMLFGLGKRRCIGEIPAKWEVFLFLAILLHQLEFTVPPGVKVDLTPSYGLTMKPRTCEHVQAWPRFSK
Procedure: (§1) The effect of the Zhicaowu–Hezi combination on CYP450 enzymes in RLM was evaluated by assessing the metabolic clearance rates of theophylline, metoprolol, bupropion, mephenytoin (CYP2c13), chlorzoxazone, testosterone, and diclofenac.
(§2) On day 15, the rats were humanely euthanized, and liver tissues were excised for microsomal preparation. […] Livers from each group were repeatedly washed with ice-cold phosphate buffered saline (PBS). […] Subsequently, they were blotted dry with filter paper, weighed, and homogenized by adding 4 mL of ice-cold PBS per gram of liver tissue. The mixture was homogenized in an ice bath. The liver homogenate was subjected to centrifugation at 10,000 RPM for 20 min at 4°C. The resulting supernatant was then combined with an ice-cold 88-mmol/L CaCl2 solution at a 1:1 ratio, and the mixture was homogenized in an ice bath for 5 min. The resulting solution was then centrifuged at 25,000 × g for 30 min at 4°C. The supernatant was discarded and the precipitate was repeatedly resuspended in PBS–20% glycerol buffer. The precipitate was then stored in a separate bottle at −80°C for backup. The protein concentration of the prepared RLM was determined using a bicinchoninic acid protein assay kit.
(§3) Preincubation was conducted for 5 min in a water bath at 37°C, after which NADPH (1 mmol/L) was added, and incubation continued for 30 min at 37°C. Once the incubation period elapsed, the reaction was terminated by the addition of an ice-cold IS-containing acetonitrile solution. The samples were vortexed for 2 min and centrifuged at 15,000 RPM for 10 min. The resulting supernatant was filtered through a 0.22-μm organic microporous membrane, and 20 μL of the filtered solution was injected into the HPLC assay. To prevent the organic solvents from inducing or inhibiting the enzyme, the volume fraction of organic solvents in the entire incubation system was maintained at 1%. […] The inhibitor group was added with corresponding inhibitor, while all other procedures remained identical.

[5] = target: T2, CYP3a1
Procedure: as §1, §2, §3

Compound: CCC1(c2ccccc2)C(=O)NC(=O)NC1=O [P, phenobarbital sodium]
- liver histopathology finding [1]: Scattered cellular edema
- bupropion AUC(0-t) [2]: 13249 ± 1396 ng·h/mL
- bupropion AUC(0-∞) [2]: 13714 ± 1057 ng·h/mL
- bupropion CLz/F [2]: 7.53418 ± 1.2563 mL/min/kg
- bupropion Cmax [2]: 1151 ± 138 ng/mL
- bupropion t1/2 z [2]: 15.564 ± 0.555 h
- testosterone AUC(0-t) [3]: 756 ± 48 ng·h/mL
- testosterone AUC(0-∞) [3]: 907 ± 93 ng·h/mL
- testosterone CLz/F [3]: 6,479.436 ± 351.908 mL/h/kg
- testosterone Cmax [3]: 107 ± 15 ng/mL
- testosterone t1/2 z [3]: 7.394 ± 0.958 h

Compound: S=P(N1CC1)(N1CC1)N1CC1 [Thiotepa]
- CYP1a2 (%) metabolic clearance rate of probe drug [4]: 35.91 ± 1.40%
- CYP3a1 (%) metabolic clearance rate of probe drug [5]: 25.72 ± 2.36%

Compound: O=c1cc(-c2ccccc2)oc2c1ccc1ccccc12 [α-naphthoflavone]
- CYP1a2 (%) metabolic clearance rate of probe drug [4]: 28.92 ± 1.91 %
- CYP3a1 (%) metabolic clearance rate of probe drug ([5]; RLM 0.5 mg/mL, 30 min 37°C, inhibitor added, probe testosterone, blank control 25.04 ± 1.93, n = 3): 25.69 ± 2.09%
